In US20050239784A1 (priority 2002, published 2005):
Where two headings read alike, the source gives them in different places.

How the values were obtained:
CDK4 = CDK4 (Homo sapiens, UniProt P11802); test: biochemical
AKT3 [1] = target: T1, AKT3 (Homo sapiens, UniProt Q9Y243); test: biochemical
Target sequence in this assay (Q9Y243 whole entry, species assumed): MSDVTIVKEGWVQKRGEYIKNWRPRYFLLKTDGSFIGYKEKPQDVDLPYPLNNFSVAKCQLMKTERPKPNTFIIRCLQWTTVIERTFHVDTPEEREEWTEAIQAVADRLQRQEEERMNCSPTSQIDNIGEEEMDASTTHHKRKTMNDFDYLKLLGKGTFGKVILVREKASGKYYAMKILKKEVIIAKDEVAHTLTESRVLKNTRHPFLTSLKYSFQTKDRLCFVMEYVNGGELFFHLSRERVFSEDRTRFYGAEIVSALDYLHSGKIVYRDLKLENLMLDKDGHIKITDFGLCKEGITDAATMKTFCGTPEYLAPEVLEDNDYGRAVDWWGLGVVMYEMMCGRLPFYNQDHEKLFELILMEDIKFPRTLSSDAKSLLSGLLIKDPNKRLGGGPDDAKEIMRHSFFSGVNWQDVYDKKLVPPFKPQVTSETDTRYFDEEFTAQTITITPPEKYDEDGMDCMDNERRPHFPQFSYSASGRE

AKT3 [2] = target: T1, AKT3; test: cell-based
Target sequence in this assay (Q9Y243 whole entry): as the sequence (Q9Y243 whole entry, species assumed) above

A2780 cells = test: Cytotox survival of A2780 cells after 3 days; format: cell-based; conditions: for IC50: Homo sapiens, A2780, 72 h
Experimental: In an alternative assay, the growth inhibitory effect of the compounds was tested on the ovarian carcinoma cell line A2780 using art known cytotoxicity assays such as LIVE/DEAD (Molecular Probes) MTT.

CDC25B = target: T2, CDC25B (Homo sapiens, UniProt P30305); test: biochemical
T2 sequence (P30305 1-580): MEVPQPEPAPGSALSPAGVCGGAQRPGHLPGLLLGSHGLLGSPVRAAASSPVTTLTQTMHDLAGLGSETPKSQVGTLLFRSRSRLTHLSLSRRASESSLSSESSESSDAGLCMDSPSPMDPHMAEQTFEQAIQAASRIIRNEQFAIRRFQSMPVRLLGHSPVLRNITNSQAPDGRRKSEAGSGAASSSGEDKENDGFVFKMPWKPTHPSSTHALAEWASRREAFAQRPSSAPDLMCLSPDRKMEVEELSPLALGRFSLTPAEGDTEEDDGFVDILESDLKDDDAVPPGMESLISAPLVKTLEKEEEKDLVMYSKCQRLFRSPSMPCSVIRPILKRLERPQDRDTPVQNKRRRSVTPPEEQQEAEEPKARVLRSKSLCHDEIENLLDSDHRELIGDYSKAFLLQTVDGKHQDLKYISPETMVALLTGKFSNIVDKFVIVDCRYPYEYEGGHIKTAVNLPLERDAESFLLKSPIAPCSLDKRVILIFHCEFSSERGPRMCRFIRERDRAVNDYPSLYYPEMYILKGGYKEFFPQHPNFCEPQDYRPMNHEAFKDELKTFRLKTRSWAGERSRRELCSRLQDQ

physchem = conditions: pH 7.4, aqueous buffer, kinetic from dmso stock
[3] = read-out: CDK4 SPA (Ex. C.1): pIC50 values (converted)
[4] = read-out: AKT3 pep. (Ex. C.3): pIC50 values (converted)
[5] = read-out: AKT cel (Ex. C.6): pIC50 values (converted)
[6] = read-out: Cytotox survival of A2780 cells after 3 days - pIC50 values, A2780 cells, 3 days (converted)
[7] = read-out: CDC25B WT (Ex. C.5): pIC50 values (converted)

CDK4, sequence (P11802 whole entry, species assumed): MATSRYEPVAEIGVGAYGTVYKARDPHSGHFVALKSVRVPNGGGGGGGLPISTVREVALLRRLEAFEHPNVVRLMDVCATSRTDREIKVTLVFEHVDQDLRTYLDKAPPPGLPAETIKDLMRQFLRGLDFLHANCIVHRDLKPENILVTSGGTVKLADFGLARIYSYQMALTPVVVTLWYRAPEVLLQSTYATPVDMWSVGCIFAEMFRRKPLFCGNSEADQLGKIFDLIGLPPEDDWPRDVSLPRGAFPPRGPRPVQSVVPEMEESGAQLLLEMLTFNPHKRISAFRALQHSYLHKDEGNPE
CDK4, sequence (P24385 whole entry partner, species assumed): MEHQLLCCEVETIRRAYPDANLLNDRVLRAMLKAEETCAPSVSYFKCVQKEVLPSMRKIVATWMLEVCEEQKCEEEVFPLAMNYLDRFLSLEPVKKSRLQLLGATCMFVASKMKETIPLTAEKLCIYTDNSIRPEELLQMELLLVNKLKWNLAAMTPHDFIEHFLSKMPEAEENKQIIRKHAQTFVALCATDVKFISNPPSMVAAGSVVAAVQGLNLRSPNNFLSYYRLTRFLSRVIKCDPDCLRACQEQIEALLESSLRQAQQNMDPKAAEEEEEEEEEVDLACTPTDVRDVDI

SMILES | melting point | IC50 (CDK4; [3]) | IC50 (AKT3 [1]; [4]) | IC50 (AKT3 [2]; [5]) | IC50 (CDC25B; [7]) | solubility (physchem) | other results
COc1cc(-c2nc3c(=O)n(C)c(=O)nc-3n(C(C)C)n2)ccc1OCCN1CCCCC1 | 222 °C |  |  |  |  |  | 
CC(C)n1nc(-c2ccc(OCCN3CCNCC3)c(Cl)c2)nc2c(=O)n(C)c(=O)nc1-2 [Compound 104] |  | 128 nM | 121 nM | 726 nM | 30.2 nM | > 1800 µM | IC50 (A2780 cells; [6]): 214 nM
COc1cc(-c2nc3c(=O)n(C)c(=O)nc-3n(C(C)C)n2)cc(OC)c1OCCN(C)C1CCNCC1 [Compound 105] |  | 153 nM | 138 nM | > 3020 nM | 35.6 nM | > 1800 µM | IC50 (A2780 cells; [6]): < 3010 nM
COc1cc(-c2nc3c(=O)n(C)c(=O)nc-3n(C(C)C)n2)cc(OC)c1OCCN1CCCCC1 [Compound 106] |  | 142 nM | 117 nM | > 3020 nM | 33.3 nM | > 1800 µM | Cytotox survival of A2780 cells after 3 days - pIC50 values (A2780 cells; A2780 cells, 3 days): 6.074
CC(C)n1nc(-c2ccc(CN(C)CCO)cc2)nc2c(=O)n(C)c(=O)nc1-2 [Compound 111] |  |  |  |  |  | > 1800 µM | IC50 (CDK4; CDK4 SPA (Ex. C.1): pIC50 values): 126 nM; IC50 (AKT3 [1]; AKT3 pep. (Ex. C.3): pIC50 values): 161 nM; IC50 (AKT3 [2]; AKT cel (Ex. C.6): pIC50 values, MDA-MB 231 cells, phosphorylated MAPK read-out): 791 nM; IC50 (A2780 cells; A2780 cells, 3 days, read-out: Cytotox survival of A2780 cells after 3 days - pIC50 values (converted)): 157 nM; IC50 (CDC25B; CDC25B WT (Ex. C.5): pIC50 values): 31 nM
CC(C)n1nc(-c2ccc(CN(C)C3CCN(S(=O)(=O)N(C)C)CC3)cc2)nc2c(=O)n(C)c(=O)nc1-2 [Compound 113] |  | 151 nM | 184 nM | > 3020 nM | 119 nM | > 1800 µM | IC50 (A2780 cells; [6]): 220 nM
Cn1c(=O)nc2n(C3CCCC3)nc(-c3ccc(CN4CCNCC4)cc3)nc-2c1=O [Compound 153] |  | 369 nM | 335 nM | 495 nM | 46 nM | > 1800 µM | IC50 (A2780 cells; [6]): 181 nM

Second part, led by results:

melting point | SMILES | IC50 (CDK4; [3]) | IC50 (AKT3 [1]; [4]) | IC50 (AKT3 [2]; [5]) | IC50 (CDC25B; [7]) | solubility (physchem) | other results
239 °C | COc1cc(-c2nc3c(=O)n(C)c(=O)nc-3n(C)n2)ccc1OCCN1CCN(C)CC1 |  |  |  |  |  | 
233 °C | COc1cc(-c2nc3c(=O)n(C)c(=O)nc-3n(C(C)C)n2)ccc1OCCN1CCN(C)CC1 |  |  |  |  |  | 
> 250 °C | Cn1nc(-c2ccccc2)nc2c(=O)n(C3CCN(C(=O)OC(C)(C)C)CC3)c(=O)nc1-2 |  |  |  |  |  | 
216 °C | CCCC(C)n1nc(-c2ccccc2)nc2c(=O)n(C)c(=O)nc1-2 (stereo not shown) |  |  |  |  |  | 
215 °C | CCOC(=O)C(C)n1nc(-c2ccccc2)nc2c(=O)n(C)c(=O)nc1-2 (stereo not shown) |  |  |  |  |  | 
250 °C | Cn1c(=O)nc2n(C3CCN(C(=O)OC(C)(C)C)CC3)nc(-c3ccccc3)nc-2c1=O |  |  |  |  |  | 
> 250 °C | Cn1c(=O)nc2n(C3CCNCC3)nc(-c3ccccc3)nc-2c1=O |  |  |  |  |  | 
187.5 to 209 °C | COc1cc(-c2nc3c(=O)n(C)c(=O)nc-3n(C3CCCC3)n2)cc(OC)c1OCCN1CCOCC1 |  |  |  |  |  | 
232 °C | CC(C)n1nc(-c2ccc(OCCN3CCOCC3)cc2)nc2c(=O)n(C)c(=O)nc1-2 |  |  |  |  |  | 
